From ChEMBL document CHEMBL4373723 (J Med Chem, 2019)
Active and inactive are the calls of the source. The calls are words filed in the database; no cut-off is given here.

What was measured:
[1] = target: T1, Frizzled-7 (Homo sapiens, UniProt O75084); details: CHO
Description: Binding affinity to recombinant human Frizzled-7 (Gln33 to Leu185 residues)/human IgG1 chimeric protein expressed in CHO cells assessed as association rate constant by SPR assay

[2] = 40 min, 20 µM
[3] = mouse, serum, 24 h, 200 µM
[4] = Stability in presence of TCEP assessed as disulfide reduction at 20 uM measured over 40 mins at 37 degC by LC-MS analysis; type: physicochemical
[5] = organism: Homo sapiens; test: Modulation of Frizzled in human Caco2 cells assessed as protection against 0.1 to 1 ng/ml TcdB-induced cell rounding incubated for 24 hrs by phalloidin conjugated AlexaFluor488 dye based fluorescence microscopy relative to control
[6] = organism: Cricetulus griseus; test: Modulation of Frizzled in CHOK1 cells assessed as protection against 5 ng/ml TcdB-induced cell rounding at 50 uM incubated for 24 hrs by phalloidin conjugated AlexaFluor488 dye based fluorescence microscopy relative to control
[7] = target: T1, Frizzled-7; test: biochemical; type: cell-based, CHO; details: read-out: Kd
[8] = target: T1, Frizzled-7; test: Binding affinity to recombinant human Frizzled-7 (Gln33 to Leu185 residues)/human IgG1 chimeric protein expressed in CHO cells assessed as reduction in interaction of TcdB with FZD7 incubated for 1 hr by competition ELISA; type: cell-based
[9] = organism: Homo sapiens; test: Modulation of Frizzled in human Caco2 cells assessed as protection against 0.25 to 0.5 ng/ml TcdB-induced cell rounding at 50 uM incubated for 24 hrs by phalloidin conjugated AlexaFluor488 dye based fluorescence microscopy relative to control
[10] = Stability in cell culture medium containing 10% fetal bovine serum at 200 uM at 37 degC measured over 24 hrs by LC-MS analysis; type: ADME, cell-free, Bos taurus; details: cattle
[11] = target: T1, Frizzled-7; type: cell-based; details: cho
[12] = target: T1, Frizzled-7; test: Inhibition of Frizzled-7 in HEK293 cells expressing Wnt assessed as reduction in Wnt signaling by firefly luciferase reporter gene assay; type: cell-based
[13] = Binding affinity to recombinant human/mouse Frizzled-2 (Gln29 to Leu168 residues)/human IgG1 chimeric protein expressed in mouse NS0 cells assessed as reduction in interaction of TcdB with FZD7 incubated for 1 hr by competition ELISA; type: cell-based
[14] = organism: Homo sapiens; test: Modulation of Frizzled in human Caco2 cells assessed as protection against TcdB-induced cell rounding incubated for 24 hrs by phalloidin conjugated AlexaFluor488 dye based fluorescence microscopy
[15] = organism: Homo sapiens; test: Modulation of Frizzled in human Caco2 cells assessed as protection against 4 ng/ml TcdB-induced cell rounding at 50 uM incubated for 24 hrs by phalloidin conjugated AlexaFluor488 dye based fluorescence microscopy relative to control
[16] = 40 min, 20 µM; remark: listed apart in the source

Compound: CC[C@H](C)[C@H](NC(=O)[C@H](Cc1cnc[nH]1)NC(=O)[C@H](CSSC[C@H](NC(=O)[C@H](Cc1c[nH]c2ccccc12)NC(=O)[C@H](CC(C)C)NC(=O)[C@H](CCC(=O)O)NC(=O)[C@H](CC(C)C)NC(=O)[C@H](CC(=O)O)NC(=O)[C@H](CC(=O)O)NC(=O)[C@@H](NC(C)=O)[C@H](C)O)C(=O)N[C@@H](Cc1cnc[nH]1)C(=O)N[C@H](C(=O)N[C@@H](CCSC)C(=O)N[C@@H](Cc1ccc(O)cc1)C(N)=O)[C@@H](C)CC)NC(=O)[C@H](Cc1c[nH]c2ccccc12)NC(=O)[C@H](CC(C)C)NC(=O)[C@H](CCC(=O)O)NC(=O)[C@H](CC(C)C)NC(=O)[C@H](CC(=O)O)NC(=O)[C@H](CC(=O)O)NC(=O)[C@@H](NC(C)=O)[C@H](C)O)C(=O)N[C@@H](CCSC)C(=O)N[C@@H](Cc1ccc(O)cc1)C(N)=O
- Ka [1]: 166 ×10⁵ /M/s
- Stability [2]: Unstable
- Stability [3]: Stable
- Stability [4]: Unstable
- Activity [5]: 34 to 69%
- Activity [6]: Active
- Kd [7]: 0.039 nM
- inhibition [8]: Dose-dependent effect
- Activity [9]: Active
- Stability [10]: Stable
- Kd [11]: 0.64 ×10⁻³ /s
- IC50 [12]: 9.2 nM
- inhibition [13]: Dose-dependent effect
- inhibition [14]: Dose-dependent effect
- Activity [15]: inactive
- Stability [16]: Unstable
